Patent US10266513B2 (Pfizer Inc., priority 2012, dated 2019)

Target: human full-length BTK Kinase (Homo sapiens (Human), UniProt Q06187)
Test: Human BTK LanthaScreen Assay (TR-FRET)
Assay type: biochemical
Details: 50 μM ATP, FAM-Srctide peptide substrate, read-out: BTK Inhibition IC50
Description: Human BTK LanthaScreen Assay

human full-length BTK Kinase, sequence (Q06187 whole entry): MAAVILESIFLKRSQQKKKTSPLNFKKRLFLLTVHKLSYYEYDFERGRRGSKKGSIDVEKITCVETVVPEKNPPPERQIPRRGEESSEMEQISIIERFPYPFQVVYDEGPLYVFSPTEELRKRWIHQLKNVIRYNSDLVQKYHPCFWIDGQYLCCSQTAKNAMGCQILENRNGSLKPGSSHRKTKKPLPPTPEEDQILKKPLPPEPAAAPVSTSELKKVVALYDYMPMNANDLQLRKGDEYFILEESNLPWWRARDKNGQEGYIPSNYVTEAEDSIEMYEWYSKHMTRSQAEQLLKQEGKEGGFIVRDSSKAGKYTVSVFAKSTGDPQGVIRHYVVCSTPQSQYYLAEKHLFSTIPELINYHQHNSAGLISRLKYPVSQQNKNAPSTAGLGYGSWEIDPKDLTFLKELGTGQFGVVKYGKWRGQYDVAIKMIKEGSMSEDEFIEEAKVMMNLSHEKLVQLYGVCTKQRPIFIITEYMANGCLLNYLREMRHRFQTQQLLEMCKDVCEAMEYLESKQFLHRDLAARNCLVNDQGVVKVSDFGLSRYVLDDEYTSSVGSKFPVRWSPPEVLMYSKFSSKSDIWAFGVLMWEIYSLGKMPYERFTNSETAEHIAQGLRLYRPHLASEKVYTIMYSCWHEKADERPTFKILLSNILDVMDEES

Row | Structure (SMILES) | IC50 [nM]
1 | N#CN1CCCC(n2nc(-c3cccc(Oc4ccc(OC(F)(F)F)cc4)c3)c(C(N)=O)c2N)C1 (stereo not drawn) [Example 95, 5-Amino-1-(1-cyanopiperidin-3-yl)-3-{3-[4-(trifluoromethoxy)phenoxy]phenyl}-1H-pyrazole-4-carboxamide] | 79.2
2 | N#CN1CC2CC1CC2n1nc(-c2ccc(Oc3ccccc3)cc2)c(C(N)=O)c1N (stereo not drawn) [Example 11, 5-amino-1-(2-cyano-2-azabicyclo[2.2.1]hept-5-yl)-3-(4-phenoxyphenyl)-1H-pyrazole-4-carboxamide] | 5.9
3 | N#CN1CCCC(n2nc(-c3ccc(Oc4cccc(Cl)c4)cc3)c(C(N)=O)c2N)C1 (stereo not drawn) [Example 53, 5-amino-3-[4-(3-chlorophenoxy)-phenyl]-1-(1-cyanopiperidin-3-yl)-1H-pyrazole-4-carboxamide] | 1.7
4 | N#CN1CCCC(n2nc(-c3ccc(Cc4ccc(Cl)cc4)cc3)c(C(N)=O)c2N)C1 (stereo not drawn) [Example 86, 5-amino-3-[4-(4-chlorobenzyl)phenyl]-(1-cyanopiperidin-3-yl)-1H-pyrazole-4-carboxamide] | 26.8
5 | Cc1ccc(Oc2ccc(-c3nn(C4CCCN(C#N)C4)c(N)c3C(N)=O)cc2)nc1 (stereo not drawn) [Example 112, 5-amino-1-(1-cyanopiperidin-3-yl)-3-(4-((5-methylpyridin-2-yl)oxy)phenyl)-1H-pyrazole-4-carboxamide] | 16.5
6 | N#CN1CCCC(n2nc(-c3ccc(Oc4c(F)cccc4Cl)cc3)c(C(N)=O)c2N)C1 (stereo not drawn) [Example 63, 5-amino-3-[4-(2-chloro-6-fluoro-phenoxy)phenyl]-1-(1-cyanopiperidin-3-yl)-1H-pyrazole-4-carboxamide] | 4.9
7 | N#CN1CCCC(n2nc(-c3ccc(Oc4ccc(F)cc4Cl)cc3)c(C(N)=O)c2N)C1 (stereo not drawn) [Example 35, 5-amino-3-[4-(2-chloro-4-fluorophenoxy)phenyl]-1-(1-cyanopiperidin-3-yl)-1H-pyrazole-4-carboxamide] | 1.7
8 | N#CN1CCC[C@H](n2nc(-c3ccc(Cc4ccccc4F)cc3)c(C(N)=O)c2N)C1 [Example 76, (S)-5-amino-1-(1-cyanopiperidin-3-yl)-3-(4-(2-fluorobenzyl)phenyl)-1H-pyrazole-4-carboxamide] | 12
9 | N#C/C=C/C(=O)N1CCC[C@@H](n2nc(-c3ccc(Oc4ccc(Cl)cc4)cc3)c(C(N)=O)c2N)C1 [Example 135, 5-amino-3-[4-(4-chlorophenoxy)phenyl]-1-{(3R)-1-[(2E)-3-cyanoprop-2-enoyl]piperidin-3-yl}-1H-pyrazole-4-carboxamide] | 1.2
10 | N#CN1CCCC(n2nc(-c3ccc(Oc4cc(F)ccc4Cl)cc3)c(C(N)=O)c2N)C1 (stereo not drawn) [Example 45, 5-amino-3-[4-(2-chloro-5-fluoro-phenoxy)phenyl]-1-(1-cyanopiperidin-3-yl)-1H-pyrazole-4-carboxamide] | 0.81
11 | N#CN1CCCC(n2nc(-c3cccc(Oc4ccccc4)c3)c(C(N)=O)c2N)C1 (single isomer, unassigned) [Example 91] | 154
12 | N#CN1CCCC(n2nc(-c3ccc(Oc4ccc(F)c(OC(F)(F)F)c4)cc3)c(C(N)=O)c2N)C1 (stereo not drawn) [Example 46, 5-amino-1-(1-cyanopiperidin-3-yl)-3-{4-[4-fluoro-3-(trifluoromethoxy)-phenoxy]phenyl}-1H-pyrazole-4-carboxamide] | 6.4
13 | Cc1cc(Oc2cccc(-c3nn(C4CCCN(C#N)C4)c(N)c3C(N)=O)c2)ccc1Cl (stereo not drawn) [Example 99, 5-amino-3-[3-(4-chloro-3-methylphenoxy)-phenyl]-1-(1-cyanopiperidin-3-yl)-1H-pyrazole-4-carboxamide] | 15.6
14 | Cc1ccc(Oc2cccc(-c3nn(C4CCCN(C#N)C4)c(N)c3C(N)=O)c2)cc1F (stereo not drawn) [Example 96, 5-amino-1-(1-cyanopiperidin-3-yl)-3-[3-(3-fluoro-4-methylphenoxy)phenyl]-1H-pyrazole-4-carboxamide] | 21.9
15 | N#CN1CCCC(n2nc(-c3ccc(C(O)c4ccccc4)cc3)c(C(N)=O)c2N)C1 (stereo not drawn) [Example 88, 5-amino-1-(1-cyanopiperidin-3-yl)-3-{4-[hydroxy(phenyl)methyl]phenyl}-1H-pyrazole-4-carboxamide] | 5.7
16 | N#CN1CCCC(n2nc(-c3ccc(Oc4ccc(Cl)cc4)cc3)c(C(N)=O)c2N)C1 (single isomer, unassigned) [Example 14] | 12.5
17 | N#CN1CCCC(n2nc(-c3ccc(Oc4cc(Cl)ccc4F)cc3)c(C(N)=O)c2N)C1 (stereo not drawn) [Example 49, 5-amino-3-[4-(5-chloro-2-fluorophenoxy)phenyl]-1-(1-cyanopiperidin-3-yl)-1H-pyrazole-4-carboxamide] | 2.2
18 | Cc1cc(F)ccc1Oc1ccc(-c2nn(C3CCCN(C#N)C3)c(N)c2C(N)=O)cc1 (single isomer, unassigned) [Example 34] | 3.8
19 | Cc1ccc(Oc2cccc(-c3nn(C4CCCN(C#N)C4)c(N)c3C(N)=O)c2)cc1 (stereo not drawn) [Example 98, 5-amino-1-(1-cyanopiperidin-3-yl)-3-[3-(4-methylphenoxy)phenyl]-1H-pyrazole-4-carboxamide] | 27.3
20 | C=C(C)C(=O)N1CCC[C@@H](n2nc(-c3ccc(Oc4ccc(F)cc4F)cc3)c(C(N)=O)c2N)C1 [Example 139, 5-amino-3-[4-(2,4-difluorophenoxy)phenyl]-1-[(3R)-1-(2-methylacryloyl)piperidin-3-yl]-1H-pyrazole-4-carboxamide] | 247
21 | N#CN1CCCC(n2nc(-c3ccc(C(=O)c4ccccc4)cc3)c(C(N)=O)c2N)C1 (stereo not drawn) [Example 87, 5-Amino-3-(4-benzoyl-phenyl)-1-(1-cyano)-piperidin-3-yl-1H-pyrazole-4-carboxylic acid amide] | 1.3
22 | Cc1ccc(Oc2ccc(-c3nn(C4CCCN(C#N)C4)c(N)c3C(N)=O)cc2)c(Cl)c1 (stereo not drawn) [Example 38, 5-amino-3-[4-(2-chloro-4-methylphenoxy)phenyl]-1-(1-cyanopiperidin-3-yl)-1H-pyrazole-4-carboxamide] | 2.5
23 | N#CCN1CCCC(n2nc(-c3ccc(Oc4ccccc4)cc3)c(C(N)=O)c2N)C1 (stereo not drawn) [Example 4, 5-amino-1-[1-(cyanomethyl)piperidin-3-yl]-3-(4-phenoxyphenyl)-1H-pyrazole-4-carboxamide] | 35
24 | COc1ccccc1Oc1ccc(-c2nn(C3CCCN(C#N)C3)c(N)c2C(N)=O)cc1 (stereo not drawn) [Example 65, 5-amino-1-(1-cyanopiperidin-3-yl)-3-[4-(2-methoxyphenoxy)phenyl]-1H-pyrazole-4-carboxamide] | 10.6
25 | Cc1ccc(Oc2ccc(-c3nn(C4CCCN(C#N)C4)c(N)c3C(N)=O)cc2)cc1 (stereo not drawn) [Example 42, 5-amino-1-(1-cyanopiperidin-3-yl)-3-[4-(4-methylphenoxy)phenyl]-1H-pyrazole-4-carboxamide] | 1.2
26 | CC(C)c1ccc(Oc2ccc(-c3nn(C4CCCN(C#N)C4)c(N)c3C(N)=O)cc2)cc1 (stereo not drawn) [Example 24, 5-amino-1-(1-cyanopiperidin-3-yl)-3-[4-(4-isopropylphenoxy)phenyl]-1H-pyrazole-4-carboxamide] | 5
27 | N#CN1CCC[C@H](n2nc(-c3ccc(Oc4ncc(Cl)cc4F)cc3)c(C(N)=O)c2N)C1 [Example 119, (S)-5-amino-3-(4-((5-chloro-3-fluoropyridin-2-yl)oxy)phenyl)-1-(1-cyanopiperidin-3-yl)-1H-pyrazole-4-carboxamide] | 60.5
